Our source for the IC50 values is US20230099739A1, “JAK KINASE INHIBITOR AND PREPARATION AND APPLICATION THEREOF” (MINGHUI PHARMACEUTICAL (SHANGHAI) LIMITED, priority 2020, published 2023).

pIC50: −log10 of the molar value.

In one assay the target is T1, JAK3 (Homo sapiens, UniProt P52333).
T1 sequence (P52333 1-1124): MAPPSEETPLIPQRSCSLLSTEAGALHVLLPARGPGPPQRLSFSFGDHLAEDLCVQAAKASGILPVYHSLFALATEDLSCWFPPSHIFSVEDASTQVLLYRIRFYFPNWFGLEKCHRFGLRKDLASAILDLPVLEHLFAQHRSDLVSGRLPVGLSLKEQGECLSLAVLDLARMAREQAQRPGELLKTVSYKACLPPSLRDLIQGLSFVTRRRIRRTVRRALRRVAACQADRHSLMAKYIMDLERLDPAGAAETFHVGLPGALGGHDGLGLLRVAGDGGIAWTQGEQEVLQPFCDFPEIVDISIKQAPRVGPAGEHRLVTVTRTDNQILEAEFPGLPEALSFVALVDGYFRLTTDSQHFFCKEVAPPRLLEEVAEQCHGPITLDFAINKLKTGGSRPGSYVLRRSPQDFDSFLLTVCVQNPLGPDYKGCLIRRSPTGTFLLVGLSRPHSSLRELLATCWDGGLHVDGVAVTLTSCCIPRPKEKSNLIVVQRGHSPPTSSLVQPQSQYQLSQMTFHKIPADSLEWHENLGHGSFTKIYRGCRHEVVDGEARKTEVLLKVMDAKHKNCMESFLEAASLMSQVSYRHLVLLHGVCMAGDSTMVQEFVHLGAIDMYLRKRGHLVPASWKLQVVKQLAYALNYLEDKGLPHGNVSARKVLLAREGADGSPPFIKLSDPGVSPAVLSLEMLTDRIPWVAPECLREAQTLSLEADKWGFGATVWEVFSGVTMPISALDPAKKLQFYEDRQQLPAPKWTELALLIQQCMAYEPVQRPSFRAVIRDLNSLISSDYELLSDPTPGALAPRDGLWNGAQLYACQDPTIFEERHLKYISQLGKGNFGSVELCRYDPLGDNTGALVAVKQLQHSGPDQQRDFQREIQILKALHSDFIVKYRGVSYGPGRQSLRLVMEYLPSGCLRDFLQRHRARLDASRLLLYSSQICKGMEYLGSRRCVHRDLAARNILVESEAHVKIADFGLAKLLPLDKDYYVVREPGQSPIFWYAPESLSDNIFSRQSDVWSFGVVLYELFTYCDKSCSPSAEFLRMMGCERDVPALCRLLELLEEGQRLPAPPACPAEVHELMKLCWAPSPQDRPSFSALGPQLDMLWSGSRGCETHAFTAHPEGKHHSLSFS
In words: Caliper mobility shift kinase assay, JAK3. Conditions: 1 mM ATP concentration. Type of assay: biochemical. The protocol: (§1) The in vitro inhibitory effect of compounds on JAK1, JAK2, JAK3 or TYK2 kinase was detected by Caliper mobility shift assay. Compounds to be tested were dissolved in DMSO, and prepared into 10 mM stock solutions. Stock solutions of the compounds were prepared into 50× working solutions (10 concentrations in total) through gradient dilution using DMSO, and each concentration of working solution was transferred to an Echo® master plate. The Echo® non-contact nanoliter sonic pipetting system was used to transfer […] of compound solution or DMSO of the corresponding concentration from the master plate to the 384-well reaction plate. Then, 10 μL of 2.5× kinase solution was added to the 384-well reaction plate. After 10 minutes of incubation at room temperature, 10 μL of mixed solution of 2.5×FAM-labeled polypeptide and ATP (final ATP concentration was 1 mM) was added. 30 μL of stop reagent was added, detected on Caliper, and the conversion value was calculated, i.e. the height of the product peak divided by the sum of the heights of the substrate and product peaks. […] Percent inhibition=(max−conversion)/(max−min)×100, wherein “max” represents the conversion reading for the DMSO control and “min” represents the conversion reading for the low value control.

The target of the next assay is JAK1 (Homo sapiens, UniProt P23458). In words: Caliper mobility shift kinase assay, JAK1. Conditions: 1 mM ATP concentration. Type of assay: biochemical. The protocol: as §1
JAK1, sequence (P23458 whole entry): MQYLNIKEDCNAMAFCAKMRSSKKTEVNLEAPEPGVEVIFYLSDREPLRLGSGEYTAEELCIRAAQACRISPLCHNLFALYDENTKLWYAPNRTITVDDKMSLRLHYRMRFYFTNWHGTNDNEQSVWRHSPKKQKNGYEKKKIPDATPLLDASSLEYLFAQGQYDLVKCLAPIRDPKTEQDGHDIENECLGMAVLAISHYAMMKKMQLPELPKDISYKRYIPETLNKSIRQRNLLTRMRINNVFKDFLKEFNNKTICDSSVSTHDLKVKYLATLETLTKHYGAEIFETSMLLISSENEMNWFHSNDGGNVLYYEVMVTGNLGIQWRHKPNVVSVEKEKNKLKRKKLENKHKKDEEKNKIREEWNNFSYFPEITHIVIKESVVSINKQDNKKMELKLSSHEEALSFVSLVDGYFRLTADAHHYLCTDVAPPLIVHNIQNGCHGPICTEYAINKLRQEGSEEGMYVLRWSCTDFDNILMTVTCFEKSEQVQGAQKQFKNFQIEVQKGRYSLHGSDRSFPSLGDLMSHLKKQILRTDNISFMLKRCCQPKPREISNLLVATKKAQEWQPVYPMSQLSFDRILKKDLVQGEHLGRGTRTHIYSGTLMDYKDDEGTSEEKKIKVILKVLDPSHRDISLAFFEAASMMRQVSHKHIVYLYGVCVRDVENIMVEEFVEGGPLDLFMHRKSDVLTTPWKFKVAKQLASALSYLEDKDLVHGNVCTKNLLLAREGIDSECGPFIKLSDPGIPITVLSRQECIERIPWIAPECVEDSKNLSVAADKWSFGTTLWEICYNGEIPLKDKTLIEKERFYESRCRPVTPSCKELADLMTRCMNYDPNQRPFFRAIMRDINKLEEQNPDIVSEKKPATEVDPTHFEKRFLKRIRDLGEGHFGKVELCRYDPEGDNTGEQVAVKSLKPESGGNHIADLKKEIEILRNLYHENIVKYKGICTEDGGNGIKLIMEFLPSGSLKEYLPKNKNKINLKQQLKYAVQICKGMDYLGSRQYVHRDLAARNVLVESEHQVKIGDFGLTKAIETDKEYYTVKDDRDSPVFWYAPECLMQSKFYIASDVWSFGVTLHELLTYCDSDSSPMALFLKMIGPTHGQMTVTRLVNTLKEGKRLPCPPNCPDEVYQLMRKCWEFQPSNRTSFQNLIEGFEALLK
The target in a further assay is TYK2 (Homo sapiens, UniProt P29597). In words: Caliper mobility shift kinase assay, TYK2. The assay is classed as biochemical. Conditions: 1 mM ATP concentration. The protocol:
as §1

The target in the next assay is JAK2 (Homo sapiens, UniProt O60674). The experiment in a line: Caliper mobility shift kinase assay, JAK2. Type of assay: biochemical. Conditions: 1 mM ATP concentration. On the procedure: as §1
JAK2, sequence (O60674 whole entry, the tested form may be a part): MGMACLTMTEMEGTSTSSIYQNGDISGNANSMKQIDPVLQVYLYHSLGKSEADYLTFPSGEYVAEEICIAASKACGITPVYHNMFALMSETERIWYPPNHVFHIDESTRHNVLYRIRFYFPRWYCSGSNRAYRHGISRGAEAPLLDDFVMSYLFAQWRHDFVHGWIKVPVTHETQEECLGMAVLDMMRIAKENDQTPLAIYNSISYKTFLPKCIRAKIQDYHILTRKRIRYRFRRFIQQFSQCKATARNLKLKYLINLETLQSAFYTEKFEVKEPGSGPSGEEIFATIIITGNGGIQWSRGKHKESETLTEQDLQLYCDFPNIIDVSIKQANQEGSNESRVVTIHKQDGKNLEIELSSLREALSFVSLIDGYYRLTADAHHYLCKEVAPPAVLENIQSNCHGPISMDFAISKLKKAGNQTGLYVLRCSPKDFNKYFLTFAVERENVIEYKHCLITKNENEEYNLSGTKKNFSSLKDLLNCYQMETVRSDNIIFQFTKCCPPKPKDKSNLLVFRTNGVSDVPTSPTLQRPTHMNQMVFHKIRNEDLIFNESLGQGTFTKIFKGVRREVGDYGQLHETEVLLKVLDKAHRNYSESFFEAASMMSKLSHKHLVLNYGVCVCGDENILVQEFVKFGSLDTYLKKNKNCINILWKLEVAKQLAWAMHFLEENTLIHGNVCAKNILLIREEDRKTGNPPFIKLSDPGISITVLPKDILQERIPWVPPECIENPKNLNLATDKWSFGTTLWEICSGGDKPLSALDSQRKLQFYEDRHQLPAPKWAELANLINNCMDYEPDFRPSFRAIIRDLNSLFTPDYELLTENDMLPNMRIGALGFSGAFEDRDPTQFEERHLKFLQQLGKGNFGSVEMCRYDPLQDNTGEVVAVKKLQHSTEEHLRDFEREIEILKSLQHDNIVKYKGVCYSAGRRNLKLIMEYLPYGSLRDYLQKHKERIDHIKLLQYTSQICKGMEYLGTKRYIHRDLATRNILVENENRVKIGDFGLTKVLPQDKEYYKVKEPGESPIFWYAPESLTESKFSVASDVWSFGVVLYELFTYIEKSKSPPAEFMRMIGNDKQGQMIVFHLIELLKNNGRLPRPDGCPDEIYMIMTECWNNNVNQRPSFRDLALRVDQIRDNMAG
Another assay relates to Ba/F3-TEL-JAK3 cells. In words: CellTiter-Glo proliferation of Ba/F3-TEL-JAK3 cells. The note with it: Mus musculus, murine B lymphocyte BaF3 with TEL-human JAK3 kinase domain. The assay is classed as cell-based. The text has this: (§2) In murine B lymphocytes BaF3, recombinant genes (including TEL and human JAK1, TYK2, JAK2, JAK3 kinase domains) were transferred by using genetic engineering technology, in which TEL could promote phosphorylation of TEL-JAK1 or TEL-TYK2 kinase dimer and continuously activate, thus allowing cells to grow dependent on the activity of this recombinant kinase. […] CellTiter-Glo method was used to detect the proliferation of genetically engineered cell lines Ba/F3-TEL-JAK1, Ba/F3-TEL-TYK2, Ba/F3-TEL-JAK2, and Ba/F3-TEL-JAK3 which was cultured in vitro. Graphpad 7.0 was used to fit curves and IC 50 values were calculated.
(In ATP-based viability assays light output follows the ATP content of the culture.)

A further assay relates to Ba/F3-TEL-TYK2 cells. The experiment in a line: CellTiter-Glo proliferation of Ba/F3-TEL-TYK2 cells. The assay is classed as cell-based. Conditions: Mus musculus, murine B lymphocyte BaF3 with TEL-human TYK2 kinase domain.
Text: as §2

A further assay has as its system Ba/F3-TEL-JAK2 cells. The experiment in a line: CellTiter-Glo proliferation of Ba/F3-TEL-JAK2 cells. Type of assay: cell-based. Conditions: Mus musculus, murine B lymphocyte BaF3 with TEL-human JAK2 kinase domain.
Text: as §2

For the next assay, the system named is Ba/F3-TEL-JAK1 cells. In words: CellTiter-Glo proliferation of Ba/F3-TEL-JAK1 cells. The assay is classed as cell-based. The note with it: Mus musculus, murine B lymphocyte BaF3 with TEL-human JAK1 kinase domain.
Text: as §2

TYK2, sequence (P29597 whole entry): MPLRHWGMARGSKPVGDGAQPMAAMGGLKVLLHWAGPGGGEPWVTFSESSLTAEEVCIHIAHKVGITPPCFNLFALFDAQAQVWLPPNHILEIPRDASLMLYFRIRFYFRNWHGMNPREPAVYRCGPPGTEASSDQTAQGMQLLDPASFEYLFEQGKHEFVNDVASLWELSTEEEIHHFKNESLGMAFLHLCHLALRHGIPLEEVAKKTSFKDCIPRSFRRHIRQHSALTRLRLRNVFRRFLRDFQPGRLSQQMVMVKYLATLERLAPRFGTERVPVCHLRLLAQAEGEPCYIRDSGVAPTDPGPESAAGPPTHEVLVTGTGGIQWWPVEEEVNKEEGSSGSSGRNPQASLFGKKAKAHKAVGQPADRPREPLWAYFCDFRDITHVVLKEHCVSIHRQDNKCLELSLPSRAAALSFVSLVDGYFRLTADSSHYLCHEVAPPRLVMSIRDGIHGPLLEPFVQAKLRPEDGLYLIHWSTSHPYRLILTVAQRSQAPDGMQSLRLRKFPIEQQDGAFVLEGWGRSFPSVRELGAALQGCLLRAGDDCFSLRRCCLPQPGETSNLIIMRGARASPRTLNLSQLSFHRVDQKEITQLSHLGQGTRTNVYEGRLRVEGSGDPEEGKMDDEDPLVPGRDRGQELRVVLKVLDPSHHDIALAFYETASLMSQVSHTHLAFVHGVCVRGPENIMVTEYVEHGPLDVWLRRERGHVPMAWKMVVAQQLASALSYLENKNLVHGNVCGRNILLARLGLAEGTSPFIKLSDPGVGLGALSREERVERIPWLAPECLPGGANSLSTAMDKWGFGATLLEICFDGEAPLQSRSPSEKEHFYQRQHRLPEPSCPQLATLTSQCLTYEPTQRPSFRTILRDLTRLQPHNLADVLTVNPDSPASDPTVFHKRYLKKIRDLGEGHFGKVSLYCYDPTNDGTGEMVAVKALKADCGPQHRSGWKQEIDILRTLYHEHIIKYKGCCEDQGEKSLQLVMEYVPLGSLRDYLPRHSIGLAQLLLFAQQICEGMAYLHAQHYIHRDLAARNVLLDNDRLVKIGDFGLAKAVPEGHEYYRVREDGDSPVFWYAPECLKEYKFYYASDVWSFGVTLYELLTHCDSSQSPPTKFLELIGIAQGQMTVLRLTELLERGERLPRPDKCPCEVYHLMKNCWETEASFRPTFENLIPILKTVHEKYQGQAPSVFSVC

By pIC50 is commonly meant the negative decadic logarithm of the IC50, by convention in mol/L. Turning to `O=C([C@@H]1CC1(F)F)N1[C@H]2CS[C@@H]1CN(c1ccnc(Nc3cnn(CCO)c3)n1)C2` [Example 2], the pIC50 was 5.64 on JAK3; 8.00 on JAK1; 8.77 on TYK2; 8.85 at JAK2; 5.06 in the assay with Ba/F3-TEL-JAK3 cells; 6.72 in the assay on Ba/F3-TEL-TYK2 cells. The pIC50 in the assay with Ba/F3-TEL-JAK2 cells is 6.76; in the assay on Ba/F3-TEL-JAK1 cells, 6.50.

Consider `O=C([C@@H]1CC1(F)F)N1[C@H]2CS[C@@H]1CN(c1ccnc(Nc3cnn(C4(CO)CC4)c3)n1)C2` [Example 3], for which the pIC50 on JAK1 is 6.97; on TYK2, 8.54; with Ba/F3-TEL-JAK3 cells, less than 5.00; in the assay on Ba/F3-TEL-TYK2 cells, 6.25; in the assay on Ba/F3-TEL-JAK2 cells, 6.37; in the assay with Ba/F3-TEL-JAK1 cells, 7.25.

Turning to `Cn1cc(Nc2nccc(N3CC4CSC(C3)N4C(=O)[C@@H]3CC3(F)F)n2)cn1` (stereo partly shown) [Example 1], the pIC50 was 5.46 at JAK3; 7.49 on JAK1; 8.38 on TYK2; 7.57 on JAK2; 5.43 in the assay on Ba/F3-TEL-JAK3 cells; 6.95 in the assay with Ba/F3-TEL-TYK2 cells. In addition, the values for the pIC50 with Ba/F3-TEL-JAK2 cells and in the assay with Ba/F3-TEL-JAK1 cells were 7.06 and 7.51, respectively.
